Where two headings read alike, the source gives them in different places.
Tests used:
[1] = system: THP1-Dual cells (ISG54 promoter Lucia luciferase reporter); assay: THP-1 Dual Lucia Reporter Gene Assay; format: cell-based, human; conditions: Lucia luciferase signal induction, 20 hours at 37° C., read-out: Cellular THP 1 EC50
Protocol: THP1-Dual™ cells (InvivoGen #thpd-nfis) were derived from the human THP-1 monocyte cell line by stable integration of the Lucia luciferase gene, a secreted luciferase reporter gene, under the control of an ISG54 (interferon-stimulated gene) minimal promoter in conjunction with five interferon (IFN)-stimulated response elements. […] The cell plates were dosed with 62.5 nL of the testing compounds, and then incubated at 37° C. for 20 hours. At the end of the incubation, 15 μL/well of the QUANTI-Luc™ (InvivoGen #rep-q1c1) were added, and luminescence was measured immediately using the LeadSeeker.
Compound concentration versus percent signal induction curves were fitted to generate EC50 values.

[2] = biological target: Human STING (residues 140-379, H232R) (Homo sapiens (Human), UniProt Q86WV6, H232R); assay: Human STING TR-FRET Assay; conditions: read-out: Enz-TR-Fret IC50, fluorescein labeled ligand 100 nM, STING protein 100 nM, 60 minutes at rt
Sequence of Human STING (residues 140-379, H232R) (Q86WV6 140-379 H232R): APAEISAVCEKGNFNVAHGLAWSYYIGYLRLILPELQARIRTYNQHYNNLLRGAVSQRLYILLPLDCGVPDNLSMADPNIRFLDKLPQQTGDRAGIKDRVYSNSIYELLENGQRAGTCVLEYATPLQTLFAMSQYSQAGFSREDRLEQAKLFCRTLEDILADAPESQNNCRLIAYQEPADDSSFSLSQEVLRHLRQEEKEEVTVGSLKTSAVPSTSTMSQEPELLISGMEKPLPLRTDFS
Protocol: The sequence was verified before recombinant protein expression using E. coli expression system.
For expression, STING expression vector was transformed into BL21(DE3) cells. The expression was induced by adding IPTG and expressing in 16° C. for 20 hours.
Biotinylation was confirmed by Mass Spectrometry analysis.
Then 2 uL STING assay buffer containing STING protein (100 nM final) was added and the mixture was incubated at rt for 60 minutes. The plates were then read on a BMG PheraStar Plus reader (LanthaScreen module).
For the assay method described above, test compound percent inhibition, at various concentrations, was calculated relative to untreated and DMSO only treated samples. Compound concentration versus percent inhibition curves were fitted to generate IC50 values.

Row | Structure (SMILES) | EC50 ([1]; Homo sapiens, THP1-Dual, 20 h) | IC50 [2] | EC50 [1]
1 | Nc1nc2c(ncn2[C@@H]2O[C@@H]3COP(=O)(S)O[C@H]4C[C@H](Nc5ccncn5)C[C@@H]4COP(=O)(O)O[C@@H]2[C@@H]3O)c(=O)[nH]1 (stereo partly drawn) [Compound I-18, 2-amino-9-[(2S,5R,7R,8R,12aR,14R,15aS,16R)-10,16-dihydroxy-2,10-dioxido-14-(pyrimidin-4-ylamino)-2-sulfanyldecahydro-5,8-methanocyclopenta[1][1,3,6,9,11,2,10]pentaoxadiphosphacyclotetradecin-7-yl]-1,9-dihydro-6H-purin-6-one] | 1000 to 10000 nM | < 1000 nM | –
2 | Nc1nc2c(ncn2[C@@H]2O[C@@H]3COP(=O)(S)O[C@@H]4[C@@H](COP(=O)(S)O[C@@H]2[C@@H]3O)C[C@@H](Nc2ncncn2)[C@@H]4F)c(=O)[nH]1 (single isomer, unassigned) [Compound I-45] | 1000 to 10000 nM | < 1000 nM | –
3 | Nc1nc2c(ncn2[C@@H]2O[C@@H]3COP(=O)(S)O[C@@H]4[C@@H](COP(=O)(O)O[C@@H]2[C@@H]3O)C[C@@H](Nc2ncncn2)[C@@H]4F)c(=O)[nH]1 (single isomer, unassigned) [Compound I-43] | 1000 to 10000 nM | – | –
4 | Nc1nc2c(ncn2[C@@H]2O[C@@H]3COP(=O)(S)O[C@H]4C[C@H](Oc5ccncn5)C[C@@H]4COP(=O)(O)O[C@@H]2[C@@H]3O)c(=O)[nH]1 (stereo partly drawn) [Compound I-17, 2-amino-9-[(2S,5R,7R,8R,12aR,14R,15aS,16R)-10,16-dihydroxy-2,10-dioxido-14-(pyrimidin-4-yloxy)-2-sulfanyldecahydro-5,8-methanocyclopenta[1][1,3,6,9,11,2,10]pentaoxadiphosphacyclotetradecin-7-yl]-1,9-dihydro-6H-purin-6-one] | 1000 to 10000 nM | < 1000 nM | –
5 | Nc1nc2c(ncn2[C@@H]2O[C@@H]3COP(=O)(O)O[C@@H]4[C@@H](COP(=O)(O)O[C@@H]2[C@@H]3O)C[C@@H](Nc2ncncn2)[C@@H]4F)c(=O)[nH]1 [Compound I-40, 2-amino-9-[(5R,7R,8R,12aR,14R,15S,15aR,16R)-15-fluoro-2,10,16-trihydroxy-2,10-dioxido-14-(1,3,5-triazin-2-ylamino)decahydro-5,8-methanocyclopenta[1][1,3,6,9,11,2,10]pentaoxadiphosphacyclotetradecin-7-yl]-1,9-dihydro-6H-purin-6-one] | 10000 to 25000 nM | < 1000 nM | –
6 | Nc1nc2c(ncn2[C@@H]2O[C@@H]3COP(=O)(S)O[C@@H]4[C@@H](COP(=O)(S)O[C@@H]2[C@@H]3O)C[C@@H](Oc2ccncn2)[C@@H]4F)c(=O)[nH]1 (single isomer, unassigned) [Compound I-39b] | – | < 1000 nM | < 1000 nM
7 | Nc1nc2c(ncn2[C@@H]2O[C@@H]3COP(=O)(O)O[C@@H]4[C@@H](COP(=O)(O)O[C@@H]2[C@@H]3O)C[C@@H](Nc2ccncn2)[C@@H]4F)c(=O)[nH]1 [Compound I-46, 2-amino-9-[(5R,7R,8R,12aR,14R,15S,15aR,16R)-15-fluoro-2,10,16-trihydroxy-2,10-dioxido-14-(pyrimidin-4-ylamino)decahydro-5,8-methanocyclopenta[1][1,3,6,9,11,2,10]pentaoxadiphosphacyclotetradecin-7-yl]-1,9-dihydro-6H-purin-6-one] | 10000 to 25000 nM | < 1000 nM | –
8 | Nc1nc2c(ncn2[C@@H]2O[C@@H]3COP(=O)(S)O[C@@H]4[C@@H](COP(=O)(S)O[C@@H]2[C@@H]3O)C[C@@H](Oc2ccncn2)[C@@H]4F)c(=O)[nH]1 (single isomer, unassigned) [Compound I-39a] | 1000 to 10000 nM | < 1000 nM | –
9 | Nc1nc2c(ncn2[C@@H]2O[C@@H]3COP(=O)(S)O[C@H]4C[C@H](Nc5ncncc5F)C[C@@H]4COP(=O)(S)O[C@@H]2[C@@H]3O)c(=O)[nH]1 (stereo partly drawn) [Compound I-34a, 2-amino-9-{(2S,5R,7R,8R,10S,12aR,14R,15aS,16R)-14-[(5-fluoropyrimidin-4-yl)amino]-16-hydroxy-2,10-dioxido-2,10-disulfanyldecahydro-5,8-methanocyclopenta[1][1,3,6,9,11,2,10]pentaoxadiphosphacyclotetradecin-7-yl}-1,9-dihydro-6H-purin-6-one] | < 1000 nM | < 1000 nM | –
10 | Nc1nc2c(ncn2[C@@H]2O[C@@H]3COP(=O)(O)O[C@H]4C[C@H](Oc5ccncn5)C[C@@H]4COP(=O)(O)O[C@@H]2[C@@H]3O)c(=O)[nH]1 [Compound I-10, 2-amino-9-[(5R,7R,8R,12aR,14R,15aS,16R)-2,10,16-trihydroxy-2,10-dioxido-14-(pyrimidin-4-yloxy)decahydro-5,8-methanocyclopenta[1][1,3,6,9,11,2,10]pentaoxadiphosphacyclotetradecin-7-yl]-1,9-dihydro-6H-purin-6-one] | 1000 to 10000 nM | < 1000 nM | –
11 | Nc1nc2c(ncn2[C@@H]2O[C@@H]3COP(=O)(S)O[C@H]4C[C@H](Nc5ncncc5F)C[C@@H]4COP(=O)(S)O[C@@H]2[C@@H]3O)c(=O)[nH]1 (stereo partly drawn) [Compound I-34b, 2-amino-9-{(2S,5R,7R,8R,10S,12aR,14R,15aS,16R)-14-[(5-fluoropyrimidin-4-yl)amino]-16-hydroxy-2,10-dioxido-2,10-disulfanyldecahydro-5,8-methanocyclopenta [1][1,3,6,9,11,2,10]pentaoxadiphosphacyclotetradecin-7-yl}-1,9-dihydro-6H-purin-6-one] | – | < 1000 nM | 1000 to 10000 nM
12 | Nc1nc2c(ncn2[C@@H]2O[C@@H]3COP(=O)(S)O[C@@H]4[C@@H](COP(=O)(O)O[C@@H]2[C@@H]3F)C[C@@H](Nc2ccncn2)[C@@H]4F)c(=O)[nH]1 (stereo partly drawn) [Compound I-21, 2-amino-9-[(2S,5R,7R,8S,12aR,14R,15S,15aR,16R)-15,16-difluoro-10-hydroxy-2,10-dioxido-14-(pyrimidin-4-ylamino)-2-sulfanyldecahydro-5,8-methanocyclopenta[1][1,3,6,9,11,2,10]pentaoxadiphosphacyclotetradecin-7-yl]-1,9-dihydro-6H-purin-6-one] | 1000 to 10000 nM | < 1000 nM | –
13 | Nc1nc2c(ncn2[C@@H]2O[C@@H]3COP(=O)(O)O[C@@H]4[C@@H](COP(=O)(S)O[C@@H]2[C@@H]3F)C[C@@H](Nc2ccncn2)[C@@H]4F)c(=O)[nH]1 (stereo partly drawn) [Compound I-24a, 2-amino-9-[(5R,7R,8S,10S,12aR,14R,15S,15aR,16R)-15,16-difluoro-2-hydroxy-2,10-dioxido-14-(pyrimidin-4-ylamino)-10-sulfanyldecahydro-5,8-methanocyclopenta[1][1,3,6,9,11,2,10]pentaoxadiphosphacyclotetradecin-7-yl]-1,9-dihydro-6H-purin-6-one] | 1000 to 10000 nM | < 1000 nM | –
14 | Nc1nc2c(ncn2[C@@H]2O[C@@H]3COP(=O)(O)O[C@@H]4[C@@H](COP(=O)(S)O[C@@H]2[C@@H]3O)C[C@@H](Nc2ncncn2)[C@@H]4F)c(=O)[nH]1 (single isomer, unassigned) [Compound I-42] | 1000 to 10000 nM | < 1000 nM | –
15 | Nc1nc2c(ncn2[C@@H]2O[C@@H]3COP(=O)(S)O[C@@H]4[C@@H](COP(=O)(S)O[C@@H]2[C@@H]3F)C[C@@H](Nc2ccncn2)[C@@H]4F)c(=O)[nH]1 (stereo partly drawn) [Compound I-38a, 2-amino-9-[(2S,5R,7R,8S,10S,12aR,14R,15S,15aR,16R)-15,16-difluoro-2,10-dioxido-14-(pyrimidin-4-ylamino)-2,10-disulfanyldecahydro-5,8-methanocyclopenta[1][1,3,6,9,11,2,10]pentaoxadiphosphacyclotetradecin-7-yl]-1,9-dihydro-6H-purin-6-one] | 1000 to 10000 nM | < 1000 nM | –
16 | Nc1nc2c(ncn2[C@@H]2O[C@@H]3COP(=O)(O)O[C@H]4C[C@H](Nc5ncncn5)C[C@@H]4COP(=O)(O)O[C@@H]2[C@@H]3O)c(=O)[nH]1 [Compound I-27, 2-amino-9-[(5R,7R,8R,12aR,14R,15aS,16R)-2,10,16-trihydroxy-2,10-dioxido-14-(1,3,5-triazin-2-ylamino)decahydro-5,8-methanocyclopenta[1][1,3,6,9,11,2,10]pentaoxadiphosphacyclotetradecin-7-yl]-1,9-dihydro-6H-purin-6-one] | 10000 to 25000 nM | < 1000 nM | –

Reference: US11542293B2, “Sting modulator compounds, and methods of making and using” (Takeda Pharmaceutical Company Limited, priority 2017, dated 2023)
